# Measurements as given in patent publication US20180362993A1, “ELICITOR-DERIVED PEPTIDES AND USE THEREOF” (Plant Health Care, Inc., priority 2017, published 2018).
# Marks after values point to notes of the source that are not given here.
# Assays:
# corn = experiment: Drought resistance in seed-coated corn; format: in vivo; conditions: for % Change Dry Weight / % Change Fresh Weight: vs mock
# Description: The effectiveness of peptide treatment in reducing the effects of drought stress was assessed in corn using a seed treatment strategy. This strategy largely mirrors example 2, except that the seeds were coated with a peptide formulation rather than a foliar spray application.
# Seeds were first sieved using mesh screens to a uniform size (21-23/64 inches). The seeds were then coated with a mixture of peptide, Unicoat™ seed coat polymer, and a minimal volume of water in a Hege 11 Liquid Seed Treater (Wintersteiger) according to manufacturer recommendations. Seeds were coated with one of the following: (i) 0.12 μg peptide/seed, (ii) […], or (iii) a ‘mock’ treatment that included no peptide. The amount of peptide per seed assumes complete transfer of the peptide to seed surfaces in the seed coating chamber. Losses during coating were not considered.
# (§1) 3.5 inch pots were filled (approximately 0.2 L per pot) with Sunshine #1 mix (SunGro Horticulture), fertilized with 14-14-14 N,P,K Osmocote (Everris), and mixed for 20 minutes using a soil mixer M-5. Seeds were planted at a depth of 0.5 inch for germination. The pots were immediately irrigated by submergence then drained after about an hour. For each treatment group, 24 replicate seeds were planted. Plants were grown in a greenhouse under 16 hour light days at ˜75° F. and 8 hour dark nights at ˜65° F. Prior to drought conditions, the plants were well-watered.
# Three days after planting, the plants were randomized using a complete block design and subjected to a cyclic drought stress. Drought stress was imposed by withholding water for 2-3 days until the majority of plants were under medium to severe water stress. The severity of the stress was determined by the weight of the pot and visual determination of leaf curling. Once drought stress was attained, the pots were watered to full saturation. Full Saturation (100% pot capacity) is defined as the weight of the pot filled with water-saturated soil minus the weight of the filled pot prior to adding water. Drought stress was imposed for a total of 18 days.
# (§2) At the end of the experiment (18 days after initiation of drought stress), the plant was then harvested for fresh and dry weights. Individual plants were cut near the soil surface and weighed immediately (fresh weight). The plants were then placed into labeled brown paper bags and dried in a 70° C. oven for 72 hours. A dry weight was then obtained.
# The following calculation was performed on the collected data: Fresh weight at harvest and dry weight at harvest for the plants grown from peptide-treated seeds were expressed as a % change relative to the ‘mock’ treated plants.
# soy = experiment: Drought resistance in seed-treated soy; format: in vivo; conditions: for % Change Dry Weight / % Change Fresh Weight: vs mock; for Result in the seed treated drought study for soy, in words: soy seed treatment
# Description: The effectiveness of peptide treatment in reducing drought stress was assessed in soy using a seed treatment strategy. This strategy largely mirrors examples 3 and 4.
# Seeds were first sieved using mesh screens to a uniform size (14-17 mesh). The seeds were then coated with a mixture of peptide and Unicoat™ seed coat polymer in a Hege 11 Liquid Seed Treater (Wintersteiger) according to manufacturer recommendations. […]
# as §1
# Seven days after germination the heights of the plants were measured. This was determined as the distance between the soil surface and the shoot apical meristems (buds). The plants were randomized using a complete block design and subjected to a cyclic drought stress. Drought stress was imposed by withholding water for 3-4 days until the majority of plants were under medium to severe water stress. The severity of the stress was determined by the weight of the pot and visual determination of loss of turgor in the leaves (drooping). Once drought stress was attained, the pots were watered to full saturation. Full Saturation (100% pot capacity) is defined as the weight of the pot filled with water-saturated soil minus the weight of the filled pot prior to adding water. Drought stress was imposed for a total of 18 days.
# as §2, with “the plant above the soil surface was then” for “the plant was then”, “then obtained. The following calculation was performed on the collected data: Fresh weight at harvest, and dry weight at harvest for the peptide-treated plants were expressed as a % change relative to the ‘mock’ treated plants.” for “then obtained.”
# [1] = corn seed treatment 0.12 μg/seed
# [2] = corn seed treatment 1.05 μg/seed
Substance,% Change Dry Weight (corn; [1]),% Change Fresh Weight (corn; [1]),% Change Dry Weight (corn; [2]),% Change Fresh Weight (corn; [2]),"Drought tolerance activity in corn, result in words (corn; corn seed treatment)",further results
"P13-54: P13 peptide variant tested in corn seed treatment, SEQ ID NO: 76; sequence not printed in the text (AGQTSGMSPMEQLMKIFADITQSEFGDQDG; P13-54 peptide) [Peptide P13-54]",−1.38%,−4.51* %,–,–,–,–
AGQTSGMSPMEQLLKIFADITQSLFGDQDG (P13-39 peptide) [Peptide P13-39],–,–,3.10%,5.09** %,–,% Change Dry Weight (soy; soy seed treatment 0.1 μg/seed): 3.26%; % Change Fresh Weight (soy; soy seed treatment 0.1 μg/seed): 3.22%
AGQTSGMSPMEQLMEIFADITQSLFGDQR (P13-57 peptide) [Peptide P13-57],–,–,−0.68%,1.90%,–,–
AGQTSGMSPMEELMKIFADITQSLFGDQDG (P13-45 peptide) [Peptide P13-45],6.05* %,8.54** %,–,–,–,% Change Dry Weight (soy; soy seed treatment 0.9 μg/seed): 3.17%; % Change Fresh Weight (soy; soy seed treatment 0.9 μg/seed): 3.6%
MEEMEQLMKIFEEIEQELFEEEE (P13-37 peptide) [Peptide P13-37],–,–,5.53** %,7.67** %,preservation of activity,% Change Dry Weight (soy; soy seed treatment 0.9 μg/seed): 0.48%; % Change Fresh Weight (soy; soy seed treatment 0.9 μg/seed): 0.58%
AGQTSGMSPMEQLMKIFADITQSLFGDQ (P13-17 peptide) [Peptide P13-17],–,–,1.09%,1.51%,–,"Result in the seed treated drought study for soy, in words (soy): significant results; % Change Dry Weight (soy; soy seed treatment 0.1 μg/seed): 9.48** %; % Change Fresh Weight (soy; soy seed treatment 0.1 μg/seed): 8.02* %"
LEELEELLEIFEEIEEELF (P13-35 peptide) [Peptide P13-35],5.68** %,2.45%,–,–,preservation of activity,% Change Dry Weight (soy; soy seed treatment 0.1 μg/seed): 2.56%; % Change Fresh Weight (soy; soy seed treatment 0.1 μg/seed): 1.55%
AGQTSGMSPMEQLMKIFADITESLFGDQDG (P13-43 peptide) [Peptide P13-43],−0.75%,6.2* %,6.73** %,5.04%,–,% Change Dry Weight (soy; soy seed treatment 0.1 μg/seed): 2.37%; % Change Fresh Weight (soy; soy seed treatment 0.1 μg/seed): 1.96%
AGQTSGMSPMEQLMEIFADITQSLFGDQDGK (P13-22 peptide) [Peptide P13-22],–,–,1.66%,3.41%,–,% Change Dry Weight (soy; soy seed treatment 0.1 μg/seed): 4.36%; % Change Fresh Weight (soy; soy seed treatment 0.1 μg/seed): 4.91%
AGQTSGMSPMEQLMKIEADITQSLFGDQDG (P13-52 peptide) [Peptide P13-52],–,–,4.49** %,−5.08* %,–,"Result for dry weight, in words (corn; corn seed treatment): positive"
AGQTSGMSPMEQLMEIFADITQSLFGDQDR (P13-56 peptide) [Peptide P13-56],0.44%,1.91%,–,–,–,–
"P13-55: P13 peptide variant tested in corn seed treatment, SEQ ID NO: 77; sequence not printed in the text (AGQTSGMSPMEQLMKIFADITQSLEGDQDG; P13-55 peptide) [Peptide P13-55]",0.81%,−3.84%,–,–,–,–
AGQTSGMSPMEQLMKLFADLTQSLFGDQDG (P13-30 peptide) [Peptide P13-30],3.01%,6.19* %,2.73%,8.68** %,positive,"Result in the seed treated drought study for soy, in words (soy): significant results; % Change Dry Weight (soy; soy seed treatment 0.9 μg/seed): 6.17%; % Change Fresh Weight (soy; soy seed treatment 0.9 μg/seed): 9.41* %"
SQEEEMEPMEQLMEIFEEIEQELFG (P13-26 peptide) [Peptide P13-26],4.74** %,3.77* %,5.92** %,4.23* %,preservation of activity,% Change Dry Weight (soy; soy seed treatment 0.1 μg/seed): 3.40%; % Change Fresh Weight (soy; soy seed treatment 0.1 μg/seed): 2.04%
"P13-48: P13 peptide variant tested in corn seed treatment, SEQ ID NO: 70; sequence not printed in the text (AGQTSGMSPEEQLMKIFADITQSLFGDQDG; P13-48 peptide) [Peptide P13-48]",–,–,−1.83%,−1.65%,–,–
AGQTSGMSPMEQLMEIFADITQSLFGDQDGR (P13-20 peptide) [Peptide P13-20],–,–,3.23%,6.87** %,affords activity,% Change Dry Weight (soy; soy seed treatment 0.1 μg/seed): −5.02%; % Change Fresh Weight (soy; soy seed treatment 0.1 μg/seed): −5.86** %
SEQEEEMEEMEQLMEIFEEIEQELFE (P13-28 peptide) [Peptide P13-28],8.52** %,9.99** %,6.04** %,8.18** %,preservation of activity,"Result in the seed treated drought study for soy, in words (soy): significant results; % Change Dry Weight (soy; soy seed treatment 0.9 μg/seed): 10.35** %; % Change Fresh Weight (soy; soy seed treatment 0.9 μg/seed): 14.35** %"
"P13-50: P13 peptide variant tested in corn seed treatment, SEQ ID NO: 72; sequence not printed in the text (AGQTSGMSPMEQLEKIFADITQSLFGDQDG; P13-50 peptide) [Peptide P13-50]",0.49%,−3.95%,–,–,–,–
"P13-47: P13 peptide variant tested in corn seed treatment, SEQ ID NO: 69; sequence not printed in the text (AGQTSGESPMEQLMKIFADITQSLFGDQDG; P13-47 peptide) [Peptide P13-47]",–,–,−1.34%,−3.42%,–,–
SEEMSPMEQLMKIFADITQSLFEE (P13-36 peptide) [Peptide P13-36],5.93** %,10.60** %,7.95** %,12.38** %,supported corn drought tolerance,% Change Dry Weight (soy; soy seed treatment 0.9 μg/seed): −4.78%; % Change Fresh Weight (soy; soy seed treatment 0.9 μg/seed): 1.46%
"P13-51: P13 peptide variant tested in corn seed treatment, SEQ ID NO: 73; sequence not printed in the text (AGQTSGMSPMEQLMKEFADITQSLFGDQDG; P13-51 peptide) [Peptide P13-51]",–,–,0.64%,−4.70%,–,–
AGQTSGMSPMEQLMEIFADITQSLFGDR (P13-58 peptide) [Peptide P13-58],2.83%,−4.07%,–,–,–,–
"P13-53: P13 peptide variant tested in corn seed treatment, SEQ ID NO: 75; sequence not printed in the text (AGQTSGMSPMEQLMKIFADETQSLFGDQDG; P13-53 peptide) [Peptide P13-53]",0.48%,−2.19%,–,–,–,–
"P13-49: P13 peptide variant tested in corn seed treatment, SEQ ID NO: 71; sequence not printed in the text (AGQTSGMSPMEQEMKIFADITQSLFGDQDG; P13-49 peptide) [Peptide P13-49]",0.79%,−4.24%,–,–,–,–
AGQTSGMSPMEQLMKILADITQSLLGDQDG (P13-33 peptide) [Peptide P13-33],–,–,2.59%,−1.28%,negative,–
SQTSGMSPMEQLMEIFADITQSLF (P13-25 peptide) [Peptide P13-25],–,–,3.01%,2.63%,–,–
